Reference: BindingDB's records for PubMed 34491744 (National Center For Advancing Translational Sciences, 2021)

Molecular target: Galactokinase (Homo sapiens, UniProt P51570)
Assay: Inhibition of recombinant human GALK1 using galactose as substrate incubated for 1 hrs in the presence of ATP by Kinase-Glo reagent based luminescence assay

Sequence of Galactokinase (P51570 whole entry): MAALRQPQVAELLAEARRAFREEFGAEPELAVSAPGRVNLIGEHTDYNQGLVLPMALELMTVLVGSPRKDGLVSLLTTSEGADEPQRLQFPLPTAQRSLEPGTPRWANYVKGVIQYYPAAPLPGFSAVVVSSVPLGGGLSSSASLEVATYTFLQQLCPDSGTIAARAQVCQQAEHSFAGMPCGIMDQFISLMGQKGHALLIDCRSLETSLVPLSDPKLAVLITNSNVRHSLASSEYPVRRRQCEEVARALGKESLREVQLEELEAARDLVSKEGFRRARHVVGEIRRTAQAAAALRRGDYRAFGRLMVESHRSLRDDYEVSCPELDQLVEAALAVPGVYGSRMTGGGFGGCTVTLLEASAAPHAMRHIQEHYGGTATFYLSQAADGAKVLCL

In order of rising IC50:
1. CC1=C(C(=O)NCc2cncn2C)C(c2ccccc2Cl)N=C(Nc2nc3ccccc3o2)N1 (stereo not drawn)  1.58 µM
2. CC1=C(C(=O)Nc2cc(C(=O)O)ccn2)C(c2ccccc2Cl)N=C(Nc2nc3cc(F)ccc3o2)N1 (stereo not drawn)  3.16 µM
3. CC1=C(C(=O)NCc2ccccc2O)C(c2ccccc2Cl)N=C(Nc2nc3ccccc3o2)N1 (stereo not drawn)  6.31 µM
